The conditions of data set [1]: Crystal; for mass density: 298 K, 101.33 kPa, Pycnometric method; for Triple point temperature: DTA.
A short description of data set [2]: Molar enthalpy of transition or fusion. As to conditions: Crystal; DSC.
Data set [3] in a line: molar heat capacity at constant pressure. As to conditions: 298 K; 101.33 kPa; Crystal; Small sample (50 mg) DSC.

Numbers after ± are expanded uncertainties.

As for `Cc1ccc2occ(C=O)c(=O)c2c1` [3-formyl-6-methylchromone], in data set [1], the mass density came out at 1470 ± 10 kg/m3 and the Triple point temperature is listed as 444.45 ± 0.39 K. For the same compound, the “Molar enthalpy of transition or fusion” value in data set [2] was 6.41 ± 0.189 kcal/mol. For the same compound, the “molar heat capacity at constant pressure” value in data set [3] is listed as 178.96 ± 3.6 J/K/mol.

Consider `CC(C)c1ccc2occ(C=O)c(=O)c2c1` [3-formyl-6-isopropylchromone], for which, in data set [1], the mass density amounted to 1170 ± 10 kg/m3 and the Triple point temperature is 371.47 ± 0.39 K. Moreover, the “Molar enthalpy of transition or fusion” value in data set [2] came to 5.76 ± 0.198 kcal/mol. Moreover, the “molar heat capacity at constant pressure” value in data set [3] stood at 222.5 ± 4.5 J/K/mol.

Consider `O=Cc1coc2ccccc2c1=O` [3-formylchromone], for which, in data set [1], the mass density turned out to be 1700 ± 10 kg/m3 and the Triple point temperature came out at 424.89 ± 0.39 K. Also, the “Molar enthalpy of transition or fusion” value in data set [2] was 6.06 ± 0.136 kcal/mol. The “molar heat capacity at constant pressure” value in data set [3] is 121.04 ± 2.4 J/K/mol.

The mass density is the mass of a sample divided by its volume.

(Values after the NIST ThermoML archive (doi:10.1016/j.tca.2006.07.010).)
